Data from patent publication US7261906B2, “Anti-cancer therapy agent of arsenic hexoxide (As4O6) of a natural chemical substance and its pharmaceutical composition” (priority 1998, dated 2007).

Assay: Acute toxicity, single oral administration
Type: in vivo, Rats (Sprague Dawley strain)
Settings: for LD50 (50% Lethal Dose): oral administration
Experimental: The acute toxicity of oral administration of HD-2 was evaluated according to toxicity assessment criteria described in Article 96-8 of Notice on Food and Drug Safety (Apr. 16, 1994). Rats (Sprague Dawley strain) were used for animal experiments. Dosage of a single, oral administration ranged from 0.4 to 1.25 g/kg body weight in male rats and 0.4 to […] body weight in female rats. General conditions of the animals, toxic symptoms, and mortality were measured every hour for the initial 6 hours following the single administration and once a day afterwards for 14 days. Body weights were measured before starting the study, 7 days after the administration, and at autopsy. Expired rats were studied to find the cause of death at autopsy. […] Some rats manifesting these clinical symptoms expired, but others recovered to normal condition within 2 to 3 days of clinical symptoms.

[1] = Female, 0.4 g/kg B.W. oral, 14 days
[2] = Female, 0.5 g/kg B.W. oral, 14 days
[3] = Female, 0.58 g/kg B.W. oral, 14 days
[4] = Female, 0.62 g/kg B.W. oral, 14 days
[5] = Female, 0.625 g/kg B.W. oral, 14 days
[6] = male, 0.4 g/kg B.W. oral, 14 days
[7] = male, 0.6 g/kg B.W. oral, 14 days
[8] = male, 0.8 g/kg B.W. oral, 14 days
[9] = male, 0.85 g/kg B.W. oral, 14 days
[10] = male, 1.25 g/kg B.W. oral, 14 days

## O1[As]2O[As]3O[As]1O[As](O2)O3 [HD-2, arsenic hexoxide (As4O6)]
Female, 0.4 g/kg B.W. oral
  Mortality, Days after treatment 1: 0
  Mortality, Days after treatment 2: 0
  Mortality, Days after treatment 3: 0
  Mortality, Days after treatment 4: 0
  Mortality, Days after treatment 5: 0
  Mortality, Days after treatment 6: 0
  Mortality, Days after treatment 7: 0
  Mortality, Days after treatment 8: 0
  Mortality, Days after treatment 9: 0
  Mortality, Days after treatment 10: 0
  Mortality, Days after treatment 11: 0
  Mortality, Days after treatment 12: 0
  Mortality, Days after treatment 13: 0
  Mortality, Days after treatment 14: 0
  Mortality, Hours after treatment 1: 0
  Mortality, Hours after treatment 2: 0
  Mortality, Hours after treatment 3: 0
  Mortality, Hours after treatment 4: 0
  Mortality, Hours after treatment 5: 0
  Mortality, Hours after treatment 6: 0
[1]
  Final mortality: 0%
  Final mortality (dead/total): 0/5
Female, 0.5 g/kg B.W. oral
  Mortality, Days after treatment 1: 0
  Mortality, Days after treatment 2: 0
  Mortality, Days after treatment 3: 0
  Mortality, Days after treatment 4: 0
  Mortality, Days after treatment 5: 0
  Mortality, Days after treatment 6: 0
  Mortality, Days after treatment 7: 0
  Mortality, Days after treatment 8: 0
  Mortality, Days after treatment 9: 0
  Mortality, Days after treatment 10: 0
  Mortality, Days after treatment 11: 0
  Mortality, Days after treatment 12: 0
  Mortality, Days after treatment 13: 0
  Mortality, Days after treatment 14: 0
  Mortality, Hours after treatment 1: 0
  Mortality, Hours after treatment 2: 0
  Mortality, Hours after treatment 3: 0
  Mortality, Hours after treatment 4: 0
  Mortality, Hours after treatment 5: 0
  Mortality, Hours after treatment 6: 0
[2]
  Final mortality: 0%
  Final mortality (dead/total): 0/5
Female, 0.58 g/kg B.W. oral
  Mortality, Days after treatment 1: 1
  Mortality, Days after treatment 2: 1
  Mortality, Days after treatment 3: 0
  Mortality, Days after treatment 4: 0
  Mortality, Days after treatment 5: 0
  Mortality, Days after treatment 6: 0
  Mortality, Days after treatment 7: 0
  Mortality, Days after treatment 8: 0
  Mortality, Days after treatment 9: 0
  Mortality, Days after treatment 10: 0
  Mortality, Days after treatment 11: 0
  Mortality, Days after treatment 12: 0
  Mortality, Days after treatment 13: 0
  Mortality, Days after treatment 14: 0
  Mortality, Hours after treatment 1: 0
  Mortality, Hours after treatment 2: 0
  Mortality, Hours after treatment 3: 0
  Mortality, Hours after treatment 4: 0
  Mortality, Hours after treatment 5: 0
  Mortality, Hours after treatment 6: 0
[3]
  Final mortality: 40%
  Final mortality (dead/total): 2/5
Female, 0.62 g/kg B.W. oral
  Mortality, Days after treatment 1: 3
  Mortality, Days after treatment 2: 1
  Mortality, Days after treatment 3: 0
  Mortality, Days after treatment 4: 0
  Mortality, Days after treatment 5: 0
  Mortality, Days after treatment 6: 0
  Mortality, Days after treatment 7: 0
  Mortality, Days after treatment 8: 0
  Mortality, Days after treatment 9: 0
  Mortality, Days after treatment 10: 0
  Mortality, Days after treatment 11: 0
  Mortality, Days after treatment 12: 0
  Mortality, Days after treatment 13: 0
  Mortality, Days after treatment 14: 0
  Mortality, Hours after treatment 1: 0
  Mortality, Hours after treatment 2: 0
  Mortality, Hours after treatment 3: 0
  Mortality, Hours after treatment 4: 0
  Mortality, Hours after treatment 5: 0
  Mortality, Hours after treatment 6: 0
[4]
  Final mortality: 80%
  Final mortality (dead/total): 4/5
Female, 0.625 g/kg B.W. oral
  Mortality, Days after treatment 1: 1
  Mortality, Days after treatment 2: 0
  Mortality, Days after treatment 3: 0
  Mortality, Days after treatment 4: 0
  Mortality, Days after treatment 5: 0
  Mortality, Days after treatment 6: 0
  Mortality, Days after treatment 7: 0
  Mortality, Days after treatment 8: 0
  Mortality, Days after treatment 9: 0
  Mortality, Days after treatment 10: 0
  Mortality, Days after treatment 11: 0
  Mortality, Days after treatment 12: 0
  Mortality, Days after treatment 13: 0
  Mortality, Days after treatment 14: 0
  Mortality, Hours after treatment 1: 0
  Mortality, Hours after treatment 2: 0
  Mortality, Hours after treatment 3: 0
  Mortality, Hours after treatment 4: 0
  Mortality, Hours after treatment 5: 0
  Mortality, Hours after treatment 6: 0
[5]
  Final mortality: 100%
  Final mortality (dead/total): 5/5
All subgroups of different dosages
  Changes in weight vs control group: did not show any significant difference
Female rats
  LD50 (50% Lethal Dose): 0.58 g/kg body weight
Male rats
  LD50 (50% Lethal Dose): 0.81 g/kg body weight
male, 0.4 g/kg B.W. oral
  Mortality, Days after treatment 1: 0
  Mortality, Days after treatment 2: 0
  Mortality, Days after treatment 3: 0
  Mortality, Days after treatment 4: 0
  Mortality, Days after treatment 5: 0
  Mortality, Days after treatment 6: 0
  Mortality, Days after treatment 7: 0
  Mortality, Days after treatment 8: 0
  Mortality, Days after treatment 9: 0
  Mortality, Days after treatment 10: 0
  Mortality, Days after treatment 11: 0
  Mortality, Days after treatment 12: 0
  Mortality, Days after treatment 13: 0
  Mortality, Days after treatment 14: 0
  Mortality, Hours after treatment 1: 0
  Mortality, Hours after treatment 2: 0
  Mortality, Hours after treatment 3: 0
  Mortality, Hours after treatment 4: 0
  Mortality, Hours after treatment 5: 0
  Mortality, Hours after treatment 6: 0
[6]
  Final mortality: 0%
  Final mortality (dead/total): 0/5
male, 0.6 g/kg B.W. oral
  Mortality, Days after treatment 1: 0
  Mortality, Days after treatment 2: 0
  Mortality, Days after treatment 3: 0
  Mortality, Days after treatment 4: 0
  Mortality, Days after treatment 5: 0
  Mortality, Days after treatment 6: 0
  Mortality, Days after treatment 7: 0
  Mortality, Days after treatment 8: 0
  Mortality, Days after treatment 9: 0
  Mortality, Days after treatment 10: 0
  Mortality, Days after treatment 11: 0
  Mortality, Days after treatment 12: 0
  Mortality, Days after treatment 13: 0
  Mortality, Days after treatment 14: 0
  Mortality, Hours after treatment 1: 0
  Mortality, Hours after treatment 2: 0
  Mortality, Hours after treatment 3: 0
  Mortality, Hours after treatment 4: 0
  Mortality, Hours after treatment 5: 0
  Mortality, Hours after treatment 6: 0
[7]
  Final mortality: 0%
  Final mortality (dead/total): 0/5
male, 0.8 g/kg B.W. oral
  Mortality, Days after treatment 1: 1
  Mortality, Days after treatment 2: 1
  Mortality, Days after treatment 3: 0
  Mortality, Days after treatment 4: 0
  Mortality, Days after treatment 5: 0
  Mortality, Days after treatment 6: 0
  Mortality, Days after treatment 7: 0
  Mortality, Days after treatment 8: 0
  Mortality, Days after treatment 9: 0
  Mortality, Days after treatment 10: 0
  Mortality, Days after treatment 11: 0
  Mortality, Days after treatment 12: 0
  Mortality, Days after treatment 13: 0
  Mortality, Days after treatment 14: 0
  Mortality, Hours after treatment 1: 0
  Mortality, Hours after treatment 2: 0
  Mortality, Hours after treatment 3: 0
  Mortality, Hours after treatment 4: 0
  Mortality, Hours after treatment 5: 0
  Mortality, Hours after treatment 6: 0
[8]
  Final mortality: 10%
  Final mortality (dead/total): 2/5
male, 0.85 g/kg B.W. oral
  Mortality, Days after treatment 1: 2
  Mortality, Days after treatment 2: 1
  Mortality, Days after treatment 3: 0
  Mortality, Days after treatment 4: 0
  Mortality, Days after treatment 5: 0
  Mortality, Days after treatment 6: 0
  Mortality, Days after treatment 7: 0
  Mortality, Days after treatment 8: 0
  Mortality, Days after treatment 9: 0
  Mortality, Days after treatment 10: 0
  Mortality, Days after treatment 11: 0
  Mortality, Days after treatment 12: 0
  Mortality, Days after treatment 13: 0
  Mortality, Days after treatment 14: 0
  Mortality, Hours after treatment 1: 0
  Mortality, Hours after treatment 2: 0
  Mortality, Hours after treatment 3: 0
  Mortality, Hours after treatment 4: 0
  Mortality, Hours after treatment 5: 0
  Mortality, Hours after treatment 6: 0
[9]
  Final mortality: 60%
  Final mortality (dead/total): 3/5
male, 1.25 g/kg B.W. oral
  Mortality, Days after treatment 1: 3
  Mortality, Days after treatment 2: 1
  Mortality, Days after treatment 3: 0
  Mortality, Days after treatment 4: 0
  Mortality, Days after treatment 5: 0
  Mortality, Days after treatment 6: 0
  Mortality, Days after treatment 7: 0
  Mortality, Days after treatment 8: 0
  Mortality, Days after treatment 9: 0
  Mortality, Days after treatment 10: 0
  Mortality, Days after treatment 11: 0
  Mortality, Days after treatment 12: 0
  Mortality, Days after treatment 13: 0
  Mortality, Days after treatment 14: 0
  Mortality, Hours after treatment 1: 0
  Mortality, Hours after treatment 2: 0
  Mortality, Hours after treatment 3: 0
  Mortality, Hours after treatment 4: 0
  Mortality, Hours after treatment 5: 0
  Mortality, Hours after treatment 6: 0
[10]
  Final mortality: 100%
  Final mortality (dead/total): 5/5
rats, single administration of 500 mg/kg body weight per day
  side effect: did not have any side effect
Single oral administration
  Autopsy findings of rats expired during the study period: expanded stomach and engorged liver
Single oral administration, 14 days
  Autopsy findings of rats killed at the end of the study: Significant findings related to HD-2 administration were not observed
Within 3 days of single oral administration
  Clinical symptoms: dose-dependent depression and dyspnea
